Experimental data reported in patent publication US5744453A, “Polyamine conjugates for treatment of infection” (priority 1996, dated 1998).
Converted amounts (≈) assume the structure as drawn. Where a name gives a salt, the structure may show the parent alone. Read-outs that look alike come from different tables or passages of the source.

Legend:
Format in all cases: cell-based
[1] = test system: Escherichia coli strain 25922; assay: Determination of MIC against bacteria (Table 1), E. coli 25922; details: read-out: minimum inhibitory concentration (MIC), E. coli 25922
Experimental: (§1) Antibiotic indicator strains Escherichia coli strain 25922, Enterococcus faecalis 29212, Pseudomonas aeruginosa 27853, and Staphylococcus aureus 29213 are obtained from the American Type Tissue Culture Collection (ATCC) in Rockville, Md. The cystic fibrosis isolate, Pseudomonas aeruginosa 39324, is also obtained from ATCC. Bacteria are routinely cultivated in cation-supplemented Mueller-Hinton broth (CAMHB) or agar at 37° C.
(§2) The minimum inhibitory concentration (MIC) of glycosylated and non-glycosylated steroidal polyamines for antibiotic indicator strains is determined by dissolving the test compounds in deionized water to a final concentration of 1 mg per mL. […] These solutions are sterilized by filtration through 0.22 micron syringe filters.
(§3) Stock solutions of individual compounds are serially diluted (two-fold) in sterile CAMHB in 96-well tissue culture dishes (Falcon) and inoculated with antibiotic indicator strains that are prepared as described below.
(§4) Antibiotic indicator strains are grown in 5 mL of CAMHB for 3-4 h at 37° C. with shaking (200 rpm) on a New Brunswick rotary shaker. Bacteria are adjusted to a turbidity that matched a 0.5 McFarland standard (ca. 10^8 CFU per mL) in sterile 0.85% saline. These bacterial suspensions are diluted 1:20 in sterile 0.85% saline and 10 μL (ca. […]) of each suspension is used to inoculate individual wells of a 96 well plate that contained different concentrations of the test compounds. Following inoculation, the plates are sealed with plastic tape, incubated for 24 h at 37° C. and visually inspected for bacterial growth. CAMHB inoculated with each of the antibiotic test strains and uninoculated CAMBH plus each of the test compounds served as positive and negative controls.

[2] = test system: Pseudomonas aeruginosa 27853; assay: Determination of MIC against bacteria (Table 1), P. aeruginosa 27853; details: read-out: minimum inhibitory concentration (MIC), P. aeruginosa 27853
Experimental: as §1, §2, §3, §4

[3] = test system: Enterococcus faecalis 29212; assay: Determination of MIC against bacteria (Table 1), E. faecalis 29212; details: read-out: minimum inhibitory concentration (MIC), E. faecalis 29212
Experimental: as §1, §2, §3, §4

[4] = test system: Staphylococcus aureus 29213; assay: Determination of MIC against bacteria (Table 1), S. aureus 29213; details: read-out: minimum inhibitory concentration (MIC), S. aureus 29213
Experimental: as §1, §2, §3, §4

[5] = test system: Pseudomonas aeruginosa 39324; assay: Determination of MIC against bacteria (Table 1), P. aeruginosa 39324 (cystic fibrosis isolate); details: read-out: minimum inhibitory concentration (MIC), P. aeruginosa 39324
Experimental: as §1, §2, §3, §4

[6] = Escherichia coli, 25922, CAMHB, 24 h at 37° C., tested from 1.56 to 200 μg per mL
[7] = Pseudomonas aeruginosa, 27853, CAMHB, 24 h at 37° C., tested from 1.56 to 200 μg per mL
[8] = Enterococcus faecalis, 29212, CAMHB, 24 h at 37° C., tested from 1.56 to 200 μg per mL
[9] = Staphylococcus aureus, 29213, CAMHB, 24 h at 37° C., tested from 1.56 to 200 μg per mL
[10] = Pseudomonas aeruginosa, 39324, CAMHB, 24 h at 37° C., tested from 1.56 to 200 μg per mL
[11] = Pseudomonas aeruginosa, 27853, 24 h
[12] = Enterococcus faecalis, 29212, 24 h
[13] = Staphylococcus aureus, 29213, 24 h
[14] = Pseudomonas aeruginosa, 39324, 24 h

Row | SMILES | MIC [1, 6] [µg/mL] | MIC [2, 7] [µg/mL] | MIC [3, 8] [µg/mL] | MIC [4, 9] [µg/mL] | MIC [5, 10] [µg/mL] | MIC ([1]; Escherichia coli, 25922, 24 h) [µg/mL] | MIC [2, 11] [µg/mL] | MIC [3, 12] [µg/mL] | MIC [4, 13] [µg/mL] | MIC [5, 14] [µg/mL]
1 | C[C@H](CCC(=O)NCCNCCNCCNCCNCCN)[C@H]1CC[C@H]2[C@@H]3[C@H](O)C[C@@H]4C[C@H](O)CC[C@]4(C)[C@H]3C[C@H](O)[C@]12C [Compound K, 3α,7α,12α-trihydroxy-12-deoxy-5β-cholan-24-oic acid, N-(3,6,9,12-tetraaza-14-aminotetradecyl)amide] | 75 (≈ 120 µM) | 75 (≈ 120 µM) | 15.7 (≈ 25.2 µM) | 37.5 (≈ 60.2 µM) | 75 (≈ 120 µM) | – | – | – | – | –
2 | C[C@H](CCC(=O)NCCNCCNCCNCCNCCN)[C@H]1CC[C@H]2[C@@H]3[C@H](O[C@H]4O[C@H](CO)[C@@H](O)[C@H](O)[C@H]4O)C[C@@H]4C[C@H](O)CC[C@]4(C)[C@H]3C[C@H](O[C@H]3O[C@H](CO)[C@@H](O)[C@H](O)[C@H]3O)[C@]12C [Compound L, 3α-hydroxy-7α,12α-di(1'α-glucosyl)-5β-cholan-24-oic acid, N-(3,6,9,12-tetraaza-14-aminotetradecyl)amide] | > 200 | > 200 | > 200 | > 200 | > 150 | – | – | – | – | –
3 | C[C@H](CCC(=O)NCCNCCNCCNCCN)[C@H]1CC[C@H]2[C@@H]3[C@H](O[C@H]4O[C@H](CO)[C@@H](O)[C@H](O)[C@H]4O)C[C@@H]4C[C@H](O)CC[C@]4(C)[C@H]3C[C@H](O[C@H]3O[C@H](CO)[C@@H](O)[C@H](O)[C@H]3O)[C@]12C [Compound M, 3α-hydroxy-7α,12α-di(1'α-glucosyl)-5β-cholan-24-oic acid, N-(3,6,9-triaza-11-aminoundecyl)amide] | > 200 | > 200 | > 200 | > 200 | > 150 | – | – | – | – | –
4 | C[C@H](CCC(=O)NCCNCCNCCNCCNCCN)[C@H]1CC[C@H]2[C@@H]3CC[C@@H]4C[C@H](O)CC[C@]4(C)[C@H]3CC[C@]12C [Compound N, 3α-hydroxy-7,12-dideoxy-5β-cholan-24-oic acid (or lithocholic acid), N-(3,6,9,12-tetraaza-14-aminotetradecyl)amide] | > 200 | 200 (≈ 338 µM) | 200 (≈ 338 µM) | 50 (≈ 84.6 µM) | 200 (≈ 338 µM) | – | – | – | – | –
5 | C[C@H](CCC(=O)O)[C@H]1CC[C@H]2[C@@H]3[C@H](O)C[C@@H]4C[C@H](O)CC[C@]4(C)[C@H]3C[C@H](O)[C@]12C [cholic acid sodium salt, reference compound] | – | – | – | – | – | > 200 | > 200 | > 200 | > 200 | > 200
6 | C[C@H](CCC(=O)O)[C@H]1CC[C@H]2[C@@H]3CC[C@@H]4C[C@H](O)CC[C@]4(C)[C@H]3C[C@H](O)[C@]12C [deoxycholic acid sodium salt, reference compound] | > 200 | – | – | – | – | – | > 200 | > 200 | > 200 | > 200
7 | NCCCNCCCCNCCCN [spermine, N-[N-(3-aminopropyl)-4-aminobutyl]-1,3-diaminopropane, reference compound] | > 200 | > 200 | > 200 | > 200 | > 150 | – | – | – | – | –
8 | NCCNCCNCCNCCN [tetraethylenepentamine, reference compound] | > 200 | > 200 | > 200 | > 200 | > 150 | – | – | – | – | –
